Experiments:
[1] = test system: MIA-induced osteoarthritic pain in rats; experiment: Osteoarthritic (OA) pain induced by sodium monoiodoacetate (MIA), hind limb grip force; format: in vivo, rat; settings: male Sprague Dawley rats, grip force 20 days after MIA injection
Protocol: Osteoarthritic (OA) Pain Induced by Sodium Monoiodoacetate (MIA)
Pain behavior was assessed by measurement of hind limb grip force (GF) in adult osteoarthritic rats. Male Sprague Dawley rats, obtained from Charles River Laboratories, (Wilmington, Mass.), weighing 150-175 g, were injected in the unilateral knee join with a single intra-articular injection of sodium monoiodoacetate (MIA, 3 mg/rat). All rats were tested at 20 days following MIA injection. A behavioral measure of activity-induced pain was carried out. Measurements of the peak hind limb grip force were conducted by recording the maximum compressive force (CFmax), in grams of force, exerted on a hind limb strain gauge setup, in a commercially available grip force measurement system (Columbus Instruments, Columbus, Ohio).
During testing, each rat was gently restrained by grasping it around its rib cage and then allowed to grasp the wire mesh frame attached to the strain gauge. The experimenter then moved the animal in a rostral-to-caudal direction until the grip was broken. Each rat was sequentially tested twice at an approximately 2-3 minute interval to obtain a raw mean grip force (CFmax). This raw mean grip force data was in turn converted to a maximum hindlimb cumulative compressive force (CFmax), as the grams of force/kg of body weight, for each animal.
For evaluating the compound effects, the hind limb grip force was conducted 20 days following the intra-articular injection of MIA. A group of age-matched nave (not injected with MIA) animals was added as a comparator to the drug-dosed groups. The vehicle control response for each group of MIA-treated animals was defined as the 0% response (0% effect), whereas the nave control group was defined as the normal response and as 100% effect. The % effect for each dose group was expressed as % return of response to normalcy, compared to the nave group. A percent maximal possible effect (% MPE) of testing compound was calculated according to the formula: (Treatment CFmax−Vehicle CFmax)/Vehicle CFmax]×100). Higher % effect numbers indicate increased relief from the pain in the model, with 100% indicating a return to the level of response seen in normal (non-osteoarthritic) animals. All experiments evaluating drug effects in this model were conducted in a randomized blinded fashion.
(§1) The animals were housed in Association for Assessment and Accreditation of Laboratory Animal Care (AAALAC) approved facilities at AbbVie Inc. in a temperature-regulated environment under a controlled 12-hour light-dark cycle, with lights on at 6:00 a.m. Food and water were available ad libitum at all times except during testing. All testing was done following procedures outlined in protocols approved by AbbVie Inc.'s Institutional Animal Care and Use Committee.

[2] = test system: spinal nerve ligation-induced neuropathic pain in rats; experiment: Rat spinal nerve ligation (SNL) model of neuropathic pain, von Frey paw withdrawal threshold; format: in vivo; settings: SNL dose 100 mg/kg; male Sprague Dawley rats, mechanical sensitivity (von Frey)
Source text: Rat Spinal Nerve Ligation (SNL) Model of Neuropathic Pain.
A model of spinal nerve ligation-induced (SNL model) neuropathic pain as originally described by Kim and Chung (Kim, S. H. and J. M. Chung, 1992, Pain 50, 355) was used to test a compound of the present application. The male Sprague Dawley rats (Charles River Laboratories, Wilmington, Mass.), weighing 150-175 g at the time of surgery, were placed under isoflurane anesthesia and a 1.5 cm incision was made dorsal to the lumbosacral plexus. The paraspinal muscles (left side) were separated from the spinous processes, the left L5 and L6 spinal nerves isolated, and tightly ligated with 5-0 silk suture distal to the dorsal root ganglion. Care was taken to avoid ligating the L4 spinal nerve. Following spinal nerve ligation, a minimum of 7 days of recovery and no more than 3 weeks was allowed prior to the behavioral testing (mechanical sensitivity). Only rats with threshold scores ≦4.5 g were considered allodynic and utilized in pharmacological experiments.
Mechanical sensitivity was measured using calibrated von Frey filaments (Stoelting, Wood Dale, Ill.). Paw withdrawal threshold (PWT) was determined by using the Dixon's up-down method (Dixon, W. J., 1980, Ann. Rev. Pharmacol. Toxicol., 20, 441). Rats were placed into inverted individual plastic containers (20×12.5×20 cm) on top of a suspended wire mesh with a 1 cm^2 grid to provide access to the ventral side of the hind paws, and acclimated to the test chambers for 20 minutes. The von Frey filaments were presented perpendicularly to the plantar surface of the selected hind paw, and then held in this position for approximately 8 seconds with enough force to cause a slight bend in the filament. Positive responses included an abrupt withdrawal of the hind paw from the stimulus, or flinching behavior immediately following removal of the stimulus. A 50% withdrawal threshold was determined using an up-down procedure (Dixon, 1980). A percent maximal possible effect (% MPE) of testing compound was calculated according to the formula: (Log [compound-treated threshold]−Log [vehicle-treated threshold])/(Log [maximum threshold]−Log [vehicle-treated threshold])×100%, where the maximum threshold was equal to 15 g.
as §1, with “Inc.s'” for “Inc.'s”

[3] = molecular target: human Nav1.8 (Homo sapiens (Human), UniProt Q9Y5Y9); experiment: FRET-based membrane potential assay, recombinant human sodium channel Nav1.8; format: cell-based; settings: HEK293 cells stably expressing recombinant human Nav1.8; depolarization with veratridine (EC80) + scorpion venom
Chain of human Nav1.8 (Q9Y5Y9 whole entry): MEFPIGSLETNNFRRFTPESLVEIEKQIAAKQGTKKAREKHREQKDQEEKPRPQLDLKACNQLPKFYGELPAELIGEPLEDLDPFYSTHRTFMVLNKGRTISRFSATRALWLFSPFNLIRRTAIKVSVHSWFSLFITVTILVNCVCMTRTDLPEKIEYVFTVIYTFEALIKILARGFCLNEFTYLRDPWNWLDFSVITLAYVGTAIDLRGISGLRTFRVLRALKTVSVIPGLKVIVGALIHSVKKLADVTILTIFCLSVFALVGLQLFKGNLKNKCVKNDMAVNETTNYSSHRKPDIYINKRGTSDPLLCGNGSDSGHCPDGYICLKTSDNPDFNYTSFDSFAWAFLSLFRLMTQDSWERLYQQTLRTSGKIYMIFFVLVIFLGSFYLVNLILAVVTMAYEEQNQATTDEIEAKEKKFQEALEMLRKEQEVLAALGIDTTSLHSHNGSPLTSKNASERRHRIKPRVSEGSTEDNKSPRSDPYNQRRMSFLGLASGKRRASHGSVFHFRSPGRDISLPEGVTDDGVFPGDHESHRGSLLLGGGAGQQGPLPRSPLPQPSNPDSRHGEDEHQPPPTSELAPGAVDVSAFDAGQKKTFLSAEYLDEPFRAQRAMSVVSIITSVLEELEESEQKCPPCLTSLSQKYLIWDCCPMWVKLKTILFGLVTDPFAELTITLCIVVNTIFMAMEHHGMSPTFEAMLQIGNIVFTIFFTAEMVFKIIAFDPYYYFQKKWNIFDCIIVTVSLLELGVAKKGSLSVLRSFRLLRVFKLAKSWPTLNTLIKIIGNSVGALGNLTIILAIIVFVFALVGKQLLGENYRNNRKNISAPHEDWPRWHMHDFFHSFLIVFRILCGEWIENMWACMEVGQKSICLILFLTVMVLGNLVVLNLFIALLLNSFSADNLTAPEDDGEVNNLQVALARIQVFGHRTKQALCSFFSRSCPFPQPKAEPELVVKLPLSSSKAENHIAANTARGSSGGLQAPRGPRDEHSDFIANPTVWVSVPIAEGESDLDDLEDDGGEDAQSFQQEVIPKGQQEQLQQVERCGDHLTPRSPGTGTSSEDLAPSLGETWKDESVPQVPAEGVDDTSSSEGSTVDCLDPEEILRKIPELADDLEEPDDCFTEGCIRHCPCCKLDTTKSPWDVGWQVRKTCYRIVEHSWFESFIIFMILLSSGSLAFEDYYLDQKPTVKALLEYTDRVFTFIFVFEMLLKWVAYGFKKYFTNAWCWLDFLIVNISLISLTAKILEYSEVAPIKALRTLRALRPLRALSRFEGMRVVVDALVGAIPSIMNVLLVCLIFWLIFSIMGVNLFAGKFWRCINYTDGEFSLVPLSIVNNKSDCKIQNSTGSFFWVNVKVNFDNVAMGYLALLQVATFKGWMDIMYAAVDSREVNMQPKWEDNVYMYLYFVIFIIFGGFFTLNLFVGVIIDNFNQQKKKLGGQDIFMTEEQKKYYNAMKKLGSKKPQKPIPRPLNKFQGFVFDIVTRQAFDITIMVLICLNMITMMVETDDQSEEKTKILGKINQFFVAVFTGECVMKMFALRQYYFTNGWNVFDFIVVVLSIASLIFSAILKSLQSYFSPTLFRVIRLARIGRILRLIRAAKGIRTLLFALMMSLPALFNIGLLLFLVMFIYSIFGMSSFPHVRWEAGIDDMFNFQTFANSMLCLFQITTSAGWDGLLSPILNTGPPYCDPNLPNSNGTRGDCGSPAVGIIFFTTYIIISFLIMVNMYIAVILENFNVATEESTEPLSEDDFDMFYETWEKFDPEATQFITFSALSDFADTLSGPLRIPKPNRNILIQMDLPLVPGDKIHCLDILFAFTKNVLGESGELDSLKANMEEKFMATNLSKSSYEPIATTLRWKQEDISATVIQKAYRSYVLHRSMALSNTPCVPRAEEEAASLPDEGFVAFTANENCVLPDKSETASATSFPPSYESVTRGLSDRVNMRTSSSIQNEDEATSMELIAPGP
How it was run: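 HEK293 cells stably expressing Nav1.8 were loaded with CC2-DMPE/DiSBAC2(3) FRET voltage dyes. Compounds were added 3 min before depolarization with EC80 veratridine plus scorpion venom. The F440-480/F565-625 ratio was read on FLIPR; IC50 came from four-parameter Hill fits.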

[4] = molecular target: human Nav1.7 (Homo sapiens (Human), UniProt Q15858); experiment: FRET-based membrane potential assay, recombinant human sodium channel Nav1.7; format: cell-based; settings: HEK293 cells stably expressing recombinant human Nav1.7; depolarization with veratridine (EC80) + scorpion venom
Chain of human Nav1.7 (Q15858 whole entry): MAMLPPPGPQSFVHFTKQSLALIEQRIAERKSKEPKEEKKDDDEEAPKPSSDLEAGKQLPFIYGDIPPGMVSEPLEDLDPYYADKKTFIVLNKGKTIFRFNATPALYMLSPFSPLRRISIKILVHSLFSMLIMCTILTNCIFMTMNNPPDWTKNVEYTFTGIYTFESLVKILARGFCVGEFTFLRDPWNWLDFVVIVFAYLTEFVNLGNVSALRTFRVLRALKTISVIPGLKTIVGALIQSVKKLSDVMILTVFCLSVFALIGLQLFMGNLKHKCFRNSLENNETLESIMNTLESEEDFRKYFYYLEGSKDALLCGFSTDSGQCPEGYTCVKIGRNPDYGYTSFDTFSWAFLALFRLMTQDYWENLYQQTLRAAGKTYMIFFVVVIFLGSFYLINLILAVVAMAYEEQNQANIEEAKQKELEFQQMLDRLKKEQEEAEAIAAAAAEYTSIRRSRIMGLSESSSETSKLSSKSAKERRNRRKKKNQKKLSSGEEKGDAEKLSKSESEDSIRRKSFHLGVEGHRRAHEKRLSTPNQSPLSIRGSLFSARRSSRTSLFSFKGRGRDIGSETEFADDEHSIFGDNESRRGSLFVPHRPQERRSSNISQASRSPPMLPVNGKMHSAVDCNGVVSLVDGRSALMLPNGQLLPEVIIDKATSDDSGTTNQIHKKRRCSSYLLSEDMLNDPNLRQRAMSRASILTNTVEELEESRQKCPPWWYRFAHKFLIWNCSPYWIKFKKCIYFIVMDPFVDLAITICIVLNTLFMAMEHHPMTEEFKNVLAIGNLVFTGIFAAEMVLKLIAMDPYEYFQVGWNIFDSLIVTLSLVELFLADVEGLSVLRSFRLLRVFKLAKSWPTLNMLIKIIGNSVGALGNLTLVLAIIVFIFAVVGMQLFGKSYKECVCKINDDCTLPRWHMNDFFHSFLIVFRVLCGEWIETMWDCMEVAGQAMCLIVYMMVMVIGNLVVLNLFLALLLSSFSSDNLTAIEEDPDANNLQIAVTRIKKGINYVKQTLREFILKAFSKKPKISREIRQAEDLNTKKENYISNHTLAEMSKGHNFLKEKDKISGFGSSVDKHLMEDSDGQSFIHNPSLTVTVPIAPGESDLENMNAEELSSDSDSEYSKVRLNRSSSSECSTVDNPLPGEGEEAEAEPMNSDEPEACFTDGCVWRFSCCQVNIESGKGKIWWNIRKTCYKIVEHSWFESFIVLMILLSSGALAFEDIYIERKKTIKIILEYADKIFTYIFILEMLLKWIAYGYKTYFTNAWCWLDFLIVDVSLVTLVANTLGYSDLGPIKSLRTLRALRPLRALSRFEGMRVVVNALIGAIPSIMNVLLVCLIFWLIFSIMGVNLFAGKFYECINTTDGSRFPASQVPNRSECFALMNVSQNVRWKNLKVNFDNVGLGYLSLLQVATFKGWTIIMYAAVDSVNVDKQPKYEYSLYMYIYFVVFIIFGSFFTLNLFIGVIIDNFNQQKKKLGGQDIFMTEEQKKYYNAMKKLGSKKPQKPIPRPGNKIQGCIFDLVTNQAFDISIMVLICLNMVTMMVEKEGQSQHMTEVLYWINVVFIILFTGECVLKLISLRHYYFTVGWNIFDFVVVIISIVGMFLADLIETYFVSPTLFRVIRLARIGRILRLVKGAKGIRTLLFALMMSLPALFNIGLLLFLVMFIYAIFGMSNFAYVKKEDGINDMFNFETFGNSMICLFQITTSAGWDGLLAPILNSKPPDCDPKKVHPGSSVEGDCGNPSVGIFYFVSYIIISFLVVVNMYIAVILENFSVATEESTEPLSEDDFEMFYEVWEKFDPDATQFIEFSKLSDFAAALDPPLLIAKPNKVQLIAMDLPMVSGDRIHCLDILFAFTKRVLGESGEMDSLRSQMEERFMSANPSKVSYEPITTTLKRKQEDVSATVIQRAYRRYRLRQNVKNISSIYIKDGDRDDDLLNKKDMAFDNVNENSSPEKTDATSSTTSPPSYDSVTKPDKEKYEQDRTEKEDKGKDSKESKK
How it was run: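 IC50 derived by four-parameter Hill fit of percent inhibition of depolarization, measured as peak F440-480/F565-625 ratio over baseline. Stable human Nav1.7 HEK293 cells, dye-loaded with CC2-DMPE and DiSBAC2(3)/VABSC-1 at room temperature, received compound 3 min ahead of veratridine (EC80) plus scorpion venom.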

## O=C1N(Cc2ncco2)CCN1c1cccc2c1cnn2-c1ccccc1F [Example 31, 1-[1-(2-fluorophenyl)-1H-indazol-4-yl]-3-(1,3-oxazol-2-ylmethyl)imidazolidin-2-one]
[1]; OA dose 10 mg/kg
  OA MPE (%): 89%
[2]
  SNL MPE (%): 94%

## O=C1N(Cc2ccccn2)CCN1c1cccc2c1cnn2-c1ccccc1F [Example 12, 1-[1-(2-fluorophenyl)-1H-indazol-4-yl]-3-(pyridin-2-ylmethyl)imidazolidin-2-one]
[3]
  IC50: 321 nM
[2]
  SNL MPE (%): 25%
[4]
  IC50: 1020 nM

## O=C(CN1CCN(c2cccc3c2cnn3-c2ccccc2F)C1=O)N1CC[C@H](F)C1 [Example 10, 1-[1-(2-fluorophenyl)-1H-indazol-4-yl]-3-{2-[(3S)-3-fluoropyrrolidin-1-yl]-2-oxoethyl}imidazolidin-2-one]
[1]; OA dose 30 mg/kg
  OA MPE (%): 91%
[2]
  SNL MPE (%): 0%

## O=C(CN1CCN(c2cccc3c2cnn3-c2ccccc2F)C1=O)N1CCC[C@@H](F)C1 [Example 53, 1-[1-(2-fluorophenyl)-1H-indazol-4-yl]-3-{2-[(3R)-3-fluoropiperidin-1-yl]-2-oxoethyl}imidazolidin-2-one]
[1]; OA dose 30 mg/kg
  OA MPE (%): 74%
[2]
  SNL MPE (%): 47%

## CC(C)OC(=O)N1CCN(c2cccc3c2cnn3-c2ccccc2F)C1=O [Example 4, isopropyl 3-[1-(2-fluorophenyl)-1H-indazol-4-yl]-2-oxoimidazolidine-1-carboxylate]
[3]
  IC50: 230 nM
[2]
  SNL MPE (%): 68%
[4]
  IC50: 223 nM

## CC(C)CC(=O)CN1CCN(c2cccc3c2cnn3-c2ccccc2F)C1=O [Example 8, 1-[1-(2-fluorophenyl)-1H-indazol-4-yl]-3-(4-methyl-2-oxopentyl)imidazolidin-2-one]
[1]; OA dose 30 mg/kg
  OA MPE (%): 75%
[2]
  SNL MPE (%): 57%

## NC(=O)CN1CCN(c2cccc3c2cnn3-c2ccccc2F)C1=O [Example 3, 2-{3-[1-(2-fluorophenyl)-1H-indazol-4-yl]-2-oxoimidazolidin-1-yl}acetamide]
[2]
  SNL MPE (%): 30%

## O=C1N(Cc2cocn2)CCN1c1cccc2c1cnn2-c1ccccc1F [Example 26, 1-[1-(2-fluorophenyl)-1H-indazol-4-yl]-3-(1,3-oxazol-4-ylmethyl)imidazolidin-2-one]
[3]
  IC50: 517 nM
[2]
  SNL MPE (%): 54%
[4]
  IC50: 382 nM

## CC(C)(C)OC(=O)N1CCN(c2cccc3c2cnn3-c2ccccc2F)C1=O [Example 2, tert-butyl 3-[1-(2-fluorophenyl)-1H-indazol-4-yl]-2-oxoimidazolidine-1-carboxylate]
[2]
  SNL MPE (%): 38%

## O=C(CN1CCN(c2cccc3c2cnn3-c2ccccc2F)C1=O)N1CCCC1 [Example 1, 1-[1-(2-fluorophenyl)-1H-indazol-4-yl]-3-[2-oxo-2-(pyrrolidin-1-yl)ethyl]imidazolidin-2-one]
[1]; OA dose 30 mg/kg
  OA MPE (%): 55%
[2]
  SNL MPE (%): 52%

Reference: US9783527B2, “Indazole ureas and method of use” (AbbVie Inc., priority 2014, dated 2017)
